Measured values: BindingDB's records for patent US10294246 (Merck Patent, 2019)
pIC50: −log10 of the molar value.

What follows are compounds tested against T1, Proteasome subunit beta type-8 (Homo sapiens, UniProt P28062) (assay: Determination of LMP7 Activity).
T1 sequence (P28062 whole entry): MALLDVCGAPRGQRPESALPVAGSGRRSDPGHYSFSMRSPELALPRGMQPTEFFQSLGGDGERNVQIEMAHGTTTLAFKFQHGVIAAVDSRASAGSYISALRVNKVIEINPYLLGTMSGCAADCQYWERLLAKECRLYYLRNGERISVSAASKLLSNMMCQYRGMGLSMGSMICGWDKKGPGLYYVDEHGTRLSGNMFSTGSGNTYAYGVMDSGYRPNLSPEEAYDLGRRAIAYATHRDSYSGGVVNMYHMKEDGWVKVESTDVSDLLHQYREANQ
Procedure: Measurement of LMP7 inhibition is performed in 384 well format based on fluorescence intensity assay.Purified human immunoproteasome (0.25 nM) and serial diluted compounds in DMSO (range of concentrations from 30 μM to […]) or controls are incubated for 20 minutes at 25° C. in assay buffer containing 50 mM Tris pH 7.4, 0.03% SDS, 1 mM EDTA and 1% DMSO. The reaction is initiated by the addition of the fluorogenic peptide substrate, Suc-LLVY-AMC (Bachem 1-1395), at a concentration of 40 μM. After 60 minutes of incubation at 37° C., fluorescence intensity is measured at λex=350 nm and λem=450 nm with a fluorescence reader (Perkin Elmer Envision reader or equivalent).

pIC50, > 7.30:
CC(=O)Nc1ccc(CC(=O)N[C@@H](Cc2coc3ccccc23)B(O)O)cc1 [US10294246, Compound No. 26]
C[C@H](C(=O)N[C@@H](Cc1coc2ccccc12)B(O)O)c1ccccc1 [US10294246, Compound No. 37]
COc1ccc(C(F)(F)C(=O)N[C@@H](Cc2coc3ccccc23)B(O)O)cc1 [US10294246, Compound No. 51]
Cc1ccc(OCCC(=O)N[C@@H](Cc2coc3ccccc23)B(O)O)cc1 [US10294246, Compound No. 7]
CCO[C@@H](C(=O)N[C@@H](Cc1coc2ccccc12)B(O)O)c1ccccc1 [US10294246, Compound No. 70]
CO[C@H](C(=O)N[C@@H](Cc1coc2ccccc12)B(O)O)c1ccccc1 [US10294246, Compound No. 33]
CC(=O)Nc1cccc(CC(=O)N[C@@H](Cc2coc3ccccc23)B(O)O)c1 [US10294246, Compound No. 32]
